From patent publication US11179348B2, “Combination comprising pterostilbene for the treatment of cancer” (FUNDACIÓN UNIVERSIDAD CATÓLICA DE VALENCIA SAN VICENTE …, priority 2015, dated 2021)
Like-named read-outs stand apart in the source and are kept apart here. Marks after values point to notes of the source that are not given here.

How the values were obtained:
[1] = test system: A2058 melanoma cell line; experiment: Effect of anti-melanoma chemotherapy on viability (IC50) of in vitro growing A2058; type: cell-based, human
Method: (§1) Human A2058, MeWo and MelJuso melanoma cells, and mouse AtT-20 pituitary corticotroph tumor cells were from the American Type Culture Collection (ATCC). Human HEMa-LP epidermal melanocytes were from Life Technologies (Grand Island, N.Y.). […] Cells were grown in Dulbecco's modified Eagle's medium (DMEM) (Invitrogen, San Diego, Calif.), pH 7.4, supplemented with 10% heat-inactivated FCS (Biochrom KG, Berlin, Germany), 100 units/ml penicillin and 100 μg/ml streptomycin. Cells were plated, at a density of 20,000 cells/cm2, and cultured at 37° C. in a humidified atmosphere with 5% CO2. […] Cell numbers were determined using a Coulter Counter (Coulter Electronic Inc., Miami, Fla.). Cells were allowed to attach for 12 h before any treatment addition.

[2] = test system: MeWo melanoma cell line; experiment: Effect of anti-melanoma chemotherapy on viability (IC50) of in vitro growing MeWo; type: cell-based, human
Method: as §1

[3] = test system: MelJuso melanoma cell line; experiment: Effect of anti-melanoma chemotherapy on viability (IC50) of in vitro growing MelJuso; type: cell-based, human
Method: as §1

[4] = test system: A2058 melanoma; experiment: In vivo growth of A2058 melanoma xenografts in nu/nu mice; parameters: species or system human; conditions: A2058-RFP; day 35; EGCG or Curc 50 mg/kg i.v. every 48 h, ± CRC
[5] = test system: glucocorticoid receptors (GR); experiment: GR content of human cancer cells by [3H]-labeled ligand whole-cell binding assay; conditions: A2058-RFP tumors; day 35; EGCG or Curc 50 mg/kg, ± CRC
[6] = test system: corticosterone; experiment: Plasma corticosterone levels (ELISA) in tumor-bearing mice; type: in vivo; conditions: A2058-bearing mice; day 35; 12 h circadian time; EGCG or Curc 50 mg/kg, ± CRC
Source text: (§2) Measurement of ACTH, Corticosterone, and NORA Levels.
(§3) Plasma levels of ACTH (Calbiotech, Inc., Spring Valley, Calif.), corticosterone (Kamiyama Biomedical Co., Seattle, Wash.), and NORA (IBL, Hamburg, Germany) were quantified by ELISA according to the instructions of the suppliers.

[7] = test system: ACTH; experiment: Plasma ACTH levels (ELISA) in tumor-bearing mice; type: in vivo; conditions: A2058-bearing mice; day 35; 6 h circadian time; EGCG or Curc 50 mg/kg, ± CRC
Source text: as §2, §3

[8] = for deaths in the treated groups: 50 mg/kg i.v. every 48 h
Method: FIG. 12. Effect of (−)-epigallocatechin-3-gallate (EGCG) or curcumin (Curc) treatment on (A) human melanoma (A2058) and (B) pancreatic cancer (AsPC-1) growth in vivo. EGCG or Curc were administered i.v. every 48 h for a period of 5 weeks, starting 1 week after tumor cell inoculation. For this purpose EGCG was dissolved in physiological saline, whereas Curc was dissolved in DMSO.

[9] = test system: AtT-20 pituitary corticotroph tumor cells; experiment: ACTH production and POMC expression in AtT-20 cells; type: cell-based, mouse; conditions: results not shown
Method: FIG. 3. Pterostilbene bioavailability in brain and the pituitary gland, and its effect on ACTH synthesis and POMC expression in AtT-20 cells. […] (B) Effect of pterostilbene on ACTH production by AtT-20 cells in a 24 h-period (measured between 24-48 h or between 48-72 h). […] After the 30 min period, culture flasks were washed out (three times with PBS) and the medium was renewed (controls received identical treatment).
as §3
RT-PCR and detection of mRNA was performed as described above. For Western blotting (see also above) POMC mouse monoclonal antibody (clone 2B2) from Origen (Rockville, Md.) were used.

[10] = test system: A2058 cells isolated from tumor-bearing mice; experiment: Chemosensitization of cultured A2058 cells isolated from xenografts; type: cell-based, human; conditions: isolated A2058 cells without in vivo Pter treatment
Method: FIG. 5. Chemosensitization effect of GSH depletion (A) or sod1-AS (B) in melanoma cells isolated from Pter-treated mice. Melanoma cells were cultured as in FIG. 1C. PAC.PBP (100 ng/ml) was added to the culture flasks 24 h after seeding. […] Data are mean values±SD for 5-6 different experiments (*p<0.01, comparing all experimental conditions vs controls).
FIGS. 18-25. Effect of piperlongumine and I-BET762, as GSH depleting and chemosensitizing agents, in in vitro growing human melanoma, pancreatic, breast, lung, liver, prostate, ovarian, and colorectal cancer cells. Cancer cells, isolated from Pter-treated tumor-bearing mice, were cultured as indicated under Methods. Chemotherapy (0.25 μM PAC.PBP in A2058 melanoma and MDA-MB-231 breast carcinoma cells; 0.125 μM PAC.PBP and 25 μM GTB in AsPC-1 pancreatic cancer cells; 1 μM VRB and 15 μM cisPt in A459 lung carcinoma cells; 0.15 μM DXR in HepG2 hepatocellular carcinoma cells; 15 nM DCT in PC-3 prostate carcinoma cells; 0.15 μM PAC.PBP and 25 μM CarboPt in SK-OV-3 ovarian carcinoma cells; 3 μM 5-FU, 1 μM FA and 0.6 μM IRI in HT-29 colorectal carcinoma cells) was added to the cultured flasks 24 h after seeding. PL (1 μM in A2058 and AsPC-1 cells; 0.5 μM in A549 and HT-29 cells; 0.2 μM in HepG2, PC-3, and SK-OV-3 cells; 0.1 μM in MDA-MB-231 cells) or I-BET762 (0.5 μM in HT-29 cells; 0.2 μM in A2058, AsPC-1, HepG2, PC-3, and SK-OV-3 cells; 0.1 μM in A549 and MDA-MB-231 cells) were added 6 h later. Data are mean values±SD for 4-5 different experiments per cell line (*p<0.05 and **p<0.01, comparing all experimental conditions versus control. PL, piperlongumine; PAC.PBP, paclitaxel protein-bound particles; GTB, gemcitabine; DXR, doxorubicin; VRB, vinorelbin; CisPt, cisplatin; docetaxel, DCT; CarboPt, carboplatin; 5-FU, 5-fluoracil; FA, folinic acid; IRI, irinotecan; 5-FU+FA+IRI=FOLFIRI).
Human A2058, MeWo and MelJuso melanoma cells, and mouse AtT-20 pituitary corticotroph tumor cells were from the American Type Culture Collection (ATCC). Human HEMa-LP epidermal melanocytes were from Life Technologies (Grand Island, N.Y.). Human MDA-MB-231 (triple negative: ER−, PR−, HER2−) and MCF-7 (ER+, PR+, HER2−) breast adenocarcinoma, A549 lung adenocarcinoma (NSCLC), HepG2 hepatocellular carcinoma, LNCaP (AR+) and PC-3 (AR−) prostate adenocarcinoma, SK-OV-3 epithelial ovarian carcinoma, and HT-29 and Caco-2 colorectal carcinoma cells were from the American Type Culture Collection. Cells were grown in Dulbecco's modified Eagle's medium (DMEM) (Invitrogen, San Diego, Calif.), pH 7.4, supplemented with 10% heat-inactivated FCS (Biochrom KG, Berlin, Germany), 100 units/ml penicillin and 100 μg/ml streptomycin. Cells were plated, at a density of 20,000 cells/cm2, and cultured at 37° C. in a humidified atmosphere with 5% CO2. Cells were harvested by incubation for 5 min with 0.05% (w/v) trypsin (Sigma, St. Louis, Mo.) in PBS (10 mM sodium phosphate, 4 mM KCl, 137 mM NaCl), pH 7.4, containing 0.3 mM EDTA, followed by the addition of 10% FCS to inactivate the trypsin. Cell numbers were determined using a Coulter Counter (Coulter Electronic Inc., Miami, Fla.). Cells were allowed to attach for 12 h before any treatment addition. Cellular viability was assessed as previously reported (Mena, S. et al. Clin Cancer Res 13, 2658-2666 (2007)), by measuring trypan blue exclusion and leakage of lactate dehydrogenase activity.
Isolation of Tumor Cells from Mouse Xenografts Using Enzymatic Digestion and a double Ficoll gradient. […]

IC50 ([1]; Homo sapiens) [µM] | IC50 ([2]; Homo sapiens) [µM] | IC50 ([3]; Homo sapiens, MEL-JUSO) [nM] | Compound | other results
 |  |  | N.N.[Cl][Pt][Cl] [Cisplatin] | IC50 [1]: > 100 µM; IC50 [2]: 44.3 ± 5.43 µM; IC50 [3]: 11200 ± 1770 nM
 |  |  | COc1cc(/C=C/C(=O)CC(=O)/C=C/c2ccc(O)c(OC)c2)ccc1O [Curc, curcumin, reference compound] | Tumor vol. [4]: 606 ± 126* mm^3; GR number [5]: 71 ± 12 10^3 GR/cell; CRC [6]: 161 ± 17 ng/mL plasma; ACTH [7]: 113 ± 25 pg/mL plasma; deaths in the treated groups [8]: did not cause deaths
> 100 | > 100 | 56700 ± 7460 | CN(C)/N=N/c1[nH]cnc1C(N)=O [Dacarbazine] | 
 |  |  | O=C(O[C@@H]1Cc2c(O)cc(O)cc2O[C@@H]1c1cc(O)c(O)c(O)c1)c1cc(O)c(O)c(O)c1 [EGCG, (−)-epigallocatechin-3-gallate, reference compound] | Tumor vol. [4]: 894 ± 137 mm^3; GR number [5]: 77 ± 7 10^3 GR/cell; CRC [6]: 243 ± 31 ng/mL plasma; ACTH [7]: 215 ± 36 pg/mL plasma; deaths in the treated groups [8]: did not cause deaths; deaths in the tumor-bearing groups ([8]; 60 mg/kg i.v. every 48 h): 45%
> 100 | > 100 | 1350 ± 340 | CN(Cc1cnc2nc(N)nc(N)c2n1)c1ccc(C(=O)N[C@@H](CCC(=O)O)C(=O)O)cc1 [Methotrexate] | 
0.35 ± 0.1 | 11.1 ± 2.15 | 130 ± 30 | CC(=O)O[C@H]1C(=O)[C@@]2(C)[C@H]([C@H](OC(=O)c3ccccc3)[C@]3(O)C[C@H](OC(=O)[C@H](O)[C@@H](NC(=O)c4ccccc4)c4ccccc4)C(C)=C1C3(C)C)[C@]1(OC(C)=O)CO[C@@H]1C[C@@H]2O [Paclitaxel, (2α,4α,5β,7β,10β,13α)-4,10-Bis(acetyloxy)-13-{[(2R,3S)-3-(benzoylamino)-2-hydroxy-3-phenylpropanoyl]oxy}-1,7-dihydroxy-9-oxo-5,20-epoxytax-11-en-2-yl benzoate] | 
 |  |  | COc1cc(C=Cc2ccc(OC3OC(C(=O)O)C(O)C(O)C3O)cc2)cc(OC)c1 [Pter-G, Pterostilbene 4′-O-D-glucuronide] | decrease of ACTH production in AtT-20 cells by pterostilbene conjugates [9]: None
 |  |  | COc1cc(C=Cc2ccc(OS(=O)(=O)O)cc2)cc(OC)c1 [Pter-S, pterostilbene-4′-sulfate] | decrease of ACTH production in AtT-20 cells by pterostilbene conjugates [9]: None
> 100 | > 100 | > 100000 | Cn1nnc2c(C(N)=O)ncn2c1=O [Temozolomide] | 
> 100 | > 100 | 66200 ± 6390 | CCCC(CCC)C(=O)O [Valproic acid] | 
7.65 ± 1.35 | 14.5 ± 2.17 | 190 ± 40 | CC[C@]1(O)C[C@@H]2CN(CCc3c([nH]c4ccccc34)[C@@](C(=O)OC)(c3cc4c(cc3OC)N(C)[C@H]3[C@@](O)(C(=O)OC)[C@H](OC(C)=O)[C@]5(CC)C=CCN6CC[C@]43[C@@H]65)C2)C1 [Vinblastine] | 
6.19 ± 2.06 | 12.5 ± 3.04 | 150 ± 20 | CC[C@]1(O)C[C@H]2CN(CCc3c([nH]c4ccccc34)[C@@](C(=O)OC)(c3cc4c(cc3OC)N(C=O)[C@H]3[C@@](O)(C(=O)OC)[C@H](OC(C)=O)[C@]5(CC)C=CCN6CC[C@]43[C@@H]65)C2)C1 [Vincristine] | 
 |  |  | Arsenate | IC50 [1]: > 100 µM; IC50 [2]: 94.4 ± 12.4 µM; IC50 [3]: 65400 ± 5190 nM
 |  |  | Diethylmaleate [DEM] | Cell number ([10]; culture time 24 h): 0.49 ± 0.10 ×10^6; Cell number ([10]; culture time 36 h): 0.51 ± 0.05 ×10^6; Cell number ([10]; culture time 48 h): 0.56 ± 0.08 ×10^6; Cell number ([10]; culture time 72 h): 0.67 ± 0.06* ×10^6

Compound | IC50 ([1]; Homo sapiens) [µM] | IC50 ([2]; Homo sapiens) [µM] | IC50 ([3]; Homo sapiens, MEL-JUSO) [nM] | other results
O=NN(CCCl)C(=O)NCCCl [BCNU, Carmustine] | > 100 | > 100 | 170 ± 60 | 
COc1cccc2c1C(=O)c1c(O)c3c(c(O)c1C2=O)C[C@@](O)(C(C)=O)C[C@@H]3O[C@H]1C[C@H](N)[C@H](O)[C@H](C)O1 [Daunorubicin] | 2.4 ± 0.73 | 2.61 ± 0.51 | 1440 ± 350 | 
